Data from paper PMC9645390, “Amphiphilic stilbene derivatives attenuate the neurotoxicity of soluble Aβ42 oligomers by controlling their interactions with cell membranes” (Chemical Science, 2022).
Each block holds one compound with its values, some of them ahead of it.

How the values were obtained:
[1] = molecular target: Aβ oligomers; conditions: read-out: Kd, oligomer-selective probe; cited from earlier work
[2] = molecular target: T1, Aβ42 fibrils (Homo sapiens, UniProt P05067); test: Fluorescence saturation binding assay with Aβ42 fibrils; conditions: Aβ42 fibrils
T1 construct: 1 mg of commercial Aβ42 monomer powder (from GL biochem) was dissolved in 1; purchased GL biochem
T1 sequence (P05067 672-713 limits assumed): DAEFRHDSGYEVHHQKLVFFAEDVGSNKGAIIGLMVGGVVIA
Method: (§1) Fig. 3 Binding constant measurements of ZY-5-OMe (left), ZY-5-MT (middle), ZY-5-DT (right) with Aβ42 fibrils (top), and oligomers (bottom). The measurements were performed in 10 mM phosphate buffered saline (PBS), pH 7.4. The Kd curves were fitted in GraphPad Prism with one site-specific binding model. Equation: Y = Bmax × X/(Kd + X). [Aβ42 fibrils] = [Aβ42 oligomers] = 5 μM.
(§2) Preparation of the Aβ42 Fibrils and Aβ42 Oligomers
(§3) Aβ42 fibrils: 1 mg of commercial Aβ42 monomer powder (from GL biochem) was dissolved in 1
(§4) mL 1,1,1,3,3,3-hexafluoro-2-propanol (HFIP) at room temperature and incubated for 1h. The
(§5) resulting solution was divided equally into two Eppendorf tubes. The solution in each Eppendorf
(§6) tube containing 0.5 mg Aβ42 monomer was then evaporated overnight and dried by vacuum
(§7) centrifuge to generate monomeric films. 100 μM Aβ42 fibrils solution was prepared by dissolving
(§8) the 0.5 mg monomeric films in 1.1 mL PBS buffer (with final DMSO concentration less than 1%)
(§9) and stiring at 37 °C for 3 days.
(§10) Aβ42 oligomers: The 0.5 mg monomeric films were dissolved in 1.1 mL PBS buffer (with final
(§11) DMSO concentration less than 1%) and incubated at 4 °C overnight. The resulting solution was
(§12) then centrifuged at 3000 rpm for 15 mins to remove the insoluble aggregates. The clear supernatant
(§13) was then used for the following experiments. […]
(§14) In Vitro Saturation Binding Studies with Aβ42 Fibrils and Aβ42 Oligomers
(§15) To a solution of increasing concentrations of compounds, a fixed concentration of the generated
(§16) aggregated Aβ42 fibrils or Aβ42 oligomers solutions (5 to 15 μM) was added to yield a total volume
(§17) of 100 μL. Nonspecific binding was determined without compounds. The mixture was incubated
(§18) for 15 min at room temperature. All fluorescence data were obtained on a SpectraMax M2e plate
(§19) reader (Molecular Devices).

[3] = molecular target: T2, Aβ42 oligomers (Homo sapiens, UniProt P05067); test: Fluorescence saturation binding assay with Aβ42 oligomers
T2 construct: 1 mg of commercial Aβ42 monomer powder (from GL biochem) was dissolved in 1; purchased GL biochem
T2 sequence (P05067 672-713 limits assumed): as above
Method: as §1, §2, §3, §4, §5, §6, §7, §8, §9, §10, §11, §12, §13, §14, §15, §16, §17, §18, §19

[4] = molecular target: T3, Aβ plaques in 5xFAD mice brain sections (Homo sapiens, UniProt P05067); test: Fluorescence imaging of 5xFAD mouse brain sections, colocalization with Congo Red; conditions: 9-month-old 5xFAD brain sections; compound 5 μM, Congo red 2.5 μM
T3 construct: aggregated Aβ species were commonly observed in brain sections from 5xFAD transgenic mice; tissue Jackson Laboratories; host or cells: brain sections of 9-month-old 5xFAD transgenic mice
T3 sequence (P05067 672-713 limits assumed): as above
Method: (§20) In order to confirm that the compounds can also bind to native Aβ species, brain sections collected from 9-month-old 5xFAD transgenic mice have been employed in the fluorescence imaging studies. […] The brain sections were first incubated with our compounds, followed by Congo Red (CR), which is a well-established fluorescent probe that can bind to Aβ plaques.[34] The treated brain sections were then imaged using fluorescence microscope. […] Immunostaining with the CF594-conjugated HJ 3.4 antibody (CF594-HJ3.4) was also performed to confirm that these six compounds can bind to Aβ species specifically in the brain sections (Fig. 5). Moreover, the log D values of the compounds were also measured by octanol-PBS partition assays.[35]
Fig. 4 Fluorescence microscopy images of 5xFAD mice brain sections co-incubated with amphiphilic compounds (top), Congo red (middle) and merged images (bottom, along with the Parson's correlation coefficients R). Concentrations: [amphiphilic compounds] = 5 μM, [Congo red] = 2.5 μM; scale bar: 125 μm. TEXT PRINTED IN THE PICTURE: ZY-5-MT: Merged R= 0.84 | ZY-12-DT: Merged R= 0.52 | ZY-12-OMe: Merged R= 0.77 | ZY-15-OMe: Merged R= 0.77 | ZY-17-DT: Merged R= 0.77 | ZY-17-OMe: Merged R= 0.72 […]
Histological Staining of 5×FAD Mice Brain Sections
5xFAD transgenic mice brain sections were blocked with bovine serum albumin (2% BSA in PBS, pH 7.4, 10 min). Then the mice brain sections were transferred to a PBS solution of the compound and incubated for 1 h. After which, the brain sections were transferred to a PBS solution of Congo Red or antibody HJ 3.4 (Professor David Holtzman, 1 μg/ml) and incubated for another 1 h. Then, the brain sections were treated with BSA again (5 min) followed by washing with PBS (3 × 2 min), DI water (3 × 2 min). Finally, the mice brain sections were mounted with non-fluorescent mounting media, and the images were obtained by using EVOS FL Auto 2. ImageJ Fiji program was used for colocalization analysis and determination of the Pearson’s correlation coefficient. The primary

[5] = Alamar Blue cytotoxicity assay in N2a cells; format: cell-based, mouse; conditions: mouse, N2a (Neuro2A) neuroblastoma cells, 40 h, read-out: cell viability
Method: (§21) After confirming these amphiphilic compounds can bind to Aβ species both in vitro and ex vivo, we next investigated whether these compounds could attenuate the toxicity of the Cu–Aβ species, as the Cu^2+ ions were reported to promote the formation of neurotoxic soluble Aβ42 oligomers.[45,46] Firstly, the Alamar Blue cell viability assay was used to measure the cytotoxicity of the compounds at different concentrations ranging from 20 μM to 2 μM in mouse neuroblastoma N2a cells (Fig. 8). […] Considering its high binding affinity to both Aβ fibrils and oligomers, we also further tested its ability to alleviate Cu^2+–Aβ42-induced toxicity. […] The underlying mechanism is unclear, but we propose that these compounds might perform similarly to the toxic oligomers that bind to some cell membrane receptors or insert into the membrane lipids to form porous channels.
(§22) Alamar Blue assay was chosen for the cytotoxicity studies.3 Mouse neuroblastoma Neuro2A (N2A) cells were grown with DMEM/10% FBS in a petri dish at 37 °C in a humidified atmosphere with 5% CO2. Then N2A cells were seeded in a 96-well plate (1.0 × 10^4/well). After 24 h incubation, cell media was changed to DMEM/N-2, and N2A cells were incubated for another 1 h. Then the cells were treated with different concentrations of compounds for 40 h, Alamar Blue solution (10 μL) was added, and the cells were incubated for another 90 min at 37 °C. The fluorescence intensity of each well was measured at 590 nm (excitation wavelength = 560 nm).
(§23) For the Cu2+-Aβ-induced toxicity studies, cells were treated monomeric Aβ42, Cu2+, monomeric Aβ42 + Cu2+, and monomeric Aβ42 + Cu2+ + compounds, monomeric Aβ42 + Cu2+ + copper chelators (Me2HTACN or Me3TACN), respectively. After 40 h incubation, Alamar Blue solution (10 μL) was added, and the cells were incubated for another 90 min at 37 °C. The fluorescence intensity of each well was measured at 590 nm (excitation wavelength = 560 nm). […]

[6] = system: mouse neuroblastoma N2a cells; test: Alamar Blue cytotoxicity assay in N2a cells; format: cell-based; conditions: 2 to 20 μM
Method: as §21, §22, §23

[7] = Log D by octanol-PBS partition assay; format: physicochemical; conditions: pH 7.4, fluorescence readout
Method: as §20, with “assays.[35] […]” for “assays.[35]”
The Log D value was measured following a published procedure using slight modifications.4 In general, compounds in 0.5 mL octanol was subjected to partition with 0.5 mL octanol-saturated
PBS. The whole mixture was stirred vigorously for 5 min, and centrifuged at 2,000 rpm for 5 min.
The top octanol layer was separated for later fluorescence measurement. The remaining PBS layer was partitioned with 0.5 mL PBS-saturated octanol, and the second top octanol layer was then separated after vigorous stirring and centrifuging at 2,000 rpm for another 5 min. The two octanol layers’ fluorescence spectra were recorded. The log D value was calculated by the fluorescence intensity ratio at the compounds’ emission wavelength for the above two octanol extractions. […]

Compound: CCOc1cccc(C=Cc2cc(C)c3n2[B-](F)(F)[N+]2=C(CCC(=O)OCC(Cl)(Cl)Cl)C=CC2=C3)c1O [BD-Oligo]
Kd [1]: 480 nM

Compound: CCN(CC)c1ccc(/C=C/C2=[O+][B-](F)(F)OC(/C=C/c3ccc(N(CC)CC)nc3)=C2CCCOc2c(C)cccc2C)cn1 [CRANAD-102]
Kd [1]: 7.5 ± 10 nM

Compound: COCCOCCn1c2ccc(F)cc2c2cc(/C=C/c3cc[n+](CCO)c4ccccc34)ccc21 [F-SLOH]
Kd [1]: 660 nM

Kd ([2]; 10 mM PBS pH 7.4, one site-specific binding model, read-out: Kd, Fibrils): 390 nM
binding ratio, Fibrils ([2]; from cross point between plateau and initial slope): 8.5
Kd ([3]; Aβ42 oligomers, 10 mM PBS pH 7.4, one site-specific binding model): 320 nM
binding ratio, Oligomers ([3]; Aβ42 oligomers, from cross point between plateau and initial slope): 10.2
Pearson's correlation coefficient R, colocalization with Congo Red [4]: 0.77
logD [7]: 1.17 ± 0.026
Compound: COc1cc(-c2ccc(/C=C/c3ccc(N(C)C)cc3)s2)cc(CN2CCN(C)CCN(C)CC2)c1O [ZY-12-OMe]
binding preference oligomers vs fibrils (from Kd values) ([3]; lower Kd for Aβ oligomers than Aβ fibrils): higher binding affinity to oligomers over fibrils
viability at 40 h, 5 µM ([5]; at 5 μM): > 75%
viability at 40 h, 10 µM ([5]; at 10 μM): < 50%
cytotoxicity (in words) [6]: higher cytotoxicity than others
